From patent US20230081426A1, “COMPOUNDS AND METHODS FOR KRAS MODULATION AND INDICATIONS THEREFOR” (Plexxikon Inc., priority 2020, published 2023)

What was measured:
[1] = molecular target: T1, G12V-mutant human KRAS (amino acid residues 1-188) (Homo sapiens, UniProt P01116, G12V); experiment: KRAS Binding Competition Assay (AlphaScreen; biotinylated KRpep-2d analogue), G12V; conditions: geometric mean, read-out: KRAS GMean IC50 (uM) MUTATION: G12V
T1 construct: G12V-mutant human KRAS (amino acid residues 1-188) with FLAG tag was purified from E. coli; made in house; host or cells: E. coli

[2] = molecular target: T2, G12C-mutant human KRAS (amino acid residues 1-188) (Homo sapiens, UniProt P01116, G12C); experiment: KRAS Binding Disruption Assay (AlphaScreen; biotinylated KRpep-2d analogue or RAF1-RBD), G12C; conditions: geometric mean, read-out: KRAS GMean IC50 (uM) MUTATION: G12C
T2 construct: G12D or G12C-mutant human KRAS (amino acid residues 1-188) with FLAG tag; made in house; host or cells: E. coli
Summary of the method: (§1)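 Compounds are titrated against 5-20 nM mutant KRAS and 5-20 nM of either a biotinylated KRpep-2d analogue or RAF1-RBD, incubated 1 h at 25° C. Disruption is detected as reduced Alpha signal after 1 h with donor and acceptor beads at 10 μg/mL.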

[3] = molecular target: T3, G12D-mutant human KRAS (amino acid residues 1-188) (Homo sapiens, UniProt P01116, G12D); experiment: KRAS Binding Disruption Assay (AlphaScreen; biotinylated KRpep-2d analogue or RAF1-RBD), G12D; conditions: KRAS G12D; geometric mean; read-out: KRAS GMean IC50 (uM) MUTATION: G12D
T3 construct: G12D or G12C-mutant human KRAS (amino acid residues 1-188) with FLAG tag; made in house; host or cells: E. coli
Summary of the method: as §1

Row | Structure (SMILES) | IC50 [1] | IC50 [2] | IC50 [3]
1 | O=C1NC(=O)[C@H](CC(=O)N2[C@@H]3CC[C@H]2CN(c2nc(OCC45CCCN4CCC5)nc4c(F)c(-c5cc(O)cc6ccccc56)ccc24)C3)N1 [P-0415, (S)-5-(2-((1R,5S)-3-(8-fluoro-7-(3-hydroxynaphthalen-1-yl)-2-((tetrahydro-1H-pyrrolizin-7a(5H)-yl)methoxy)quinazolin-4-yl)-3,8-diazabicyclo[3.2.1]octan-8-yl)-2-oxoethyl)imidazolidine-2,4-dione] | 0.0001 to 10 µM | 0.0001 to 10 µM | 0.0001 to 10 µM
2 | O=C1NC(=O)/C(=C/C(=O)N2[C@@H]3CC[C@H]2CN(c2nc(OCC45CCCN4CCC5)nc4c(F)c(-c5cc(O)cc6ccccc56)ccc24)C3)S1 [P-0443, (Z)-5-(2-((1R,5S)-3-(8-fluoro-7-(3-hydroxynaphthalen-1-yl)-2-((tetrahydro-1H-pyrrolizin-7a(5H)-yl)methoxy)quinazolin-4-yl)-3,8-diazabicyclo[3.2.1]octan-8-yl)-2-oxoethylidene)thiazolidine-2,4-dione] | 0.0001 to 10 µM | 0.0001 to 10 µM | 0.0001 to 10 µM
3 | CN1CCC[C@H]1COc1nc(N2C[C@H]3CC[C@@H](C2)N3C(=O)CC2SC(=O)NC2=O)c2cc(F)c(-c3cc(O)cc4ccccc34)c(F)c2n1 (stereo partly drawn) [P-0463, 5-(2-((1R,5S)-3-(6,8-difluoro-7-(3-hydroxynaphthalen-1-yl)-2-(((S)-1-methylpyrrolidin-2-yl)methoxy)quinazolin-4-yl)-3,8-diazabicyclo[3.2.1]octan-8-yl)-2-oxoethyl)thiazolidine-2,4-dione] | 0.0001 to 10 µM | 0.0001 to 10 µM | 0.0001 to 10 µM

More lines, now with the values ahead:

Row | IC50 [1] | IC50 [2] | IC50 [3] | Structure (SMILES)
4 | 0.0001 to 10 µM | 0.0001 to 10 µM | 0.0001 to 10 µM | C=CC(=O)N1[C@@H]2CC[C@H]1CN(c1nc(OC[C@@]34CCCN3C[C@H](F)C4)nc3c(F)c(-c4cc(O)cc5cccc(Cl)c45)ccc13)C2 [P-0502, 1-((1R,5S)-3-(7-(8-chloro-3-hydroxynaphthalen-1-yl)-8-fluoro-2-(((2R,7aS)-2-fluorotetrahydro-1H-pyrrolizin-7a(5H)-yl)methoxy)quinazolin-4-yl)-3,8-diazabicyclo[3.2.1]octan-8-yl)prop-2-en-1-one]
5 | 0.0001 to 10 µM | 0.0001 to 10 µM | 0.0001 to 10 µM | N#CCC(=O)N1[C@@H]2CC[C@H]1CN(c1nc(OC[C@@]34CCCN3C[C@H](F)C4)nc3c(F)c(-c4cc(O)cc5cccc(Cl)c45)ccc13)C2 [P-0504, 3-((1R,5S)-3-(7-(8-chloro-3-hydroxynaphthalen-1-yl)-8-fluoro-2-(((2R,7aS)-2-fluorotetrahydro-1H-pyrrolizin-7a(5H)-yl)methoxy)quinazolin-4-yl)-3,8-diazabicyclo[3.2.1]octan-8-yl)-3-oxopropanenitrile]
6 | 0.0001 to 10 µM | 0.0001 to 10 µM | 0.0001 to 10 µM | Oc1cc(-c2ccc3c(N4C[C@H]5CC[C@@H](C4)N5)nc(OC[C@@]45CCCN4C[C@H](F)C5)nc3c2F)c2c(Cl)cccc2c1 [P-0510, 4-(4-((1R,5S)-3,8-diazabicyclo[3.2.1]octan-3-yl)-8-fluoro-2-(((2R,7aS)-2-fluorotetrahydro-1H-pyrrolizin-7a(5H)-yl)methoxy)quinazolin-7-yl)-5-chloronaphthalen-2-ol]
